Consider 38 molecules from ChEMBL document CHEMBL1130302, “1-Arylsulfonyl-3-(-hydroxybenzyl)-1H-pyrroles, a novel class of anti-HIV-1 reverse transcriptase inhibitors” (Bioorg Med Chem Lett, 1997).

For assay [1], the system named is Human immunodeficiency virus 1. Briefly: Concentration required to achieve 50% protection of MT-4 cells against the cytopathic effect of HIV-1. It is filed as functional, organism-based. The conditions noted are these: Human immunodeficiency virus 1, MT4.
The subject of assay [2] is MT4. Description: Concentration required to reduce the viability of mock-infected MT-4 cells by 50%. Conditions: Homo sapiens. Format: functional.
Assay [3] concerns the target Human immunodeficiency virus type 1 reverse transcriptase (Human immunodeficiency virus 1, UniProt Q72547). Description: Inhibition of HIV-1 recombinant reverse transcriptase.
Assay [4] in a line: Selectivity index reported as ratio of CC50 to EC50. Format: functional.

The structures appear in SMILES notation. A value given as a limit tells only on which side of the number the result lay.

With `CC(O)c1ccn(S(=O)(=O)c2cc(Cl)ccc2N)c1` (stereo not given), the EC50 in assay [1] was > 95 µM. Besides, the CC50 in assay [2] came out at 95 µM.
With `CC(C)c1ccc(S(=O)(=O)n2ccc(C(O)c3ccc(Cl)cc3Cl)c2)cc1` (stereo not given), the concentration for half-maximal inhibition (IC50) in assay [3] is 2.5 µM. Besides, in assay [4], the Ratio was determined as 28. The same molecule registered an EC50 in assay [1] of 1.8 µM. Moreover, in assay [2], the half-maximal cytotoxic concentration (CC50) was determined as 51 µM.
With `Cc1ccc(C(c2ccn(S(=O)(=O)c3ccccc3)c2)n2ccnc2)cc1` (stereo not given), the EC50 in assay [1] was > 26 µM. In addition, in assay [2], the CC50 amounted to 26 µM.
On to `CC(=O)OC(c1ccn(S(=O)(=O)c2ccc(C)cc2)c1)c1ccc(Cl)cc1Cl` (stereo not given), for which, in assay [4], the Ratio is 10. In assay [1], the EC50 worked out at 9.8 µM. For the same molecule, half-maximal cytotoxicity in assay [2] (CC50) was put at 100 µM.
For the molecule `O=C(c1ccn(S(=O)(=O)c2ccccc2)c1)c1ccc(Cl)cc1Cl`, the EC50 in assay [1] is > 30 µM. This molecule also displayed a CC50 in assay [2] of 30 µM.
For `O=[N+]([O-])c1ccc(S(=O)(=O)n2ccc(C(O)c3ccc(Cl)cc3Cl)c2)cc1` (stereo not given), the Ratio in assay [4] stood at 2.2. Besides, the EC50 in assay [1] turned out to be 22 µM. In assay [2], the midpoint of cytotoxicity, the CC50, lay at 50 µM.
In the case of `O=S(=O)(c1ccccc1)n1ccc(C(O)c2ccc(Cl)cc2Cl)c1` (stereo not given), the IC50 in assay [3] is > 30 µM. The Ratio in assay [4] stood at 11. Moreover, the EC50 in assay [1] is 5 µM. This molecule also came in with a half-maximal cytotoxic concentration (CC50) in assay [2] of 57 µM.
For `O=S(=O)(c1ccccc1)n1ccc(C(O)c2ccc(Cl)cc2)c1` (stereo not given), in assay [4], the Ratio was 7. In assay [1], the EC50 was determined as 9 µM. In assay [2], this molecule yielded a 50% cytotoxic concentration (CC50) of 66 µM.
Take `Cc1ccc(S(=O)(=O)n2ccc(C(O)c3ccc(Cl)cc3Cl)c2)cc1` (stereo not given): in assay [3], the IC50 was 18 µM. Besides, the Ratio in assay [4] turned out to be 203. For the same molecule, the EC50 in assay [1] is 0.3 µM. Besides, the midpoint of cytotoxicity in assay [2], the CC50, lay at 61 µM.
On to `Cc1ccc(S(=O)(=O)n2ccc(C(O)c3ccc(Cl)cc3Cl)c2)c(C)c1` (stereo not given), for which the IC50 in assay [3] is < 1.1 µM. Besides, the Ratio in assay [4] was 200. Also, it took 0.3 µM to reach a half-maximal effect in assay [1] (EC50). The molecule also returned a CC50 in assay [2] of 60 µM.
Take `O=C(c1ccccc1)c1ccn(S(=O)(=O)c2ccccc2)c1`: the EC50 in assay [1] was > 32 µM. In addition, it took 32 µM to reach half-maximal cytotoxicity in assay [2] (CC50).
For `Cc1ccc(C(=O)c2ccn(S(=O)(=O)c3ccccc3)c2)cc1`, in that order: > 30 µM and 30 µM.
`Nc1ccc(Cl)cc1S(=O)(=O)n1ccc(C(O)c2ccccc2)c1` (stereo not given): the IC50 in assay [3] was > 30 µM. Besides, the Ratio in assay [4] stood at 34. Also, in assay [1], the response was half-maximal at 3.2 µM (EC50). Also, in assay [2], the CC50 amounted to 109 µM.
For `CCOC(=O)c1cc(C(O)c2ccc(Cl)cc2Cl)cn1S(=O)(=O)c1cc(Cl)ccc1N` (stereo not given), the Ratio in assay [4] turned out to be 1.8. For the same molecule, the response in assay [1] was half-maximal at 16 µM (EC50). In assay [2], this molecule had a 50% cytotoxic concentration (CC50) of 29 µM.
Consider `O=S(=O)(c1ccccc1)n1ccc(C(c2ccccc2)n2ccnc2)c1` (stereo not given), for which, in assay [1], the EC50 was > 25 µM. In assay [2], this molecule returned a CC50 of 25 µM.
On to `O=S(=O)(c1ccccc1)n1ccc(C(O)c2ccccc2F)c1` (stereo not given), for which, in assay [4], the Ratio was > 22. For the same molecule, the EC50 in assay [1] is 9.1 µM. Also, the CC50 in assay [2] was > 200 µM.
For `COc1ccc(C(O)c2ccn(S(=O)(=O)c3ccc(C)cc3)c2)cc1` (stereo not given) the same measures were > 12, 15.7 µM and > 200 µM.
For `O=S(=O)(c1ccccc1)n1ccc(C(O)c2ccccc2)c1` (stereo not given) the same measures were 15, 8 µM and 124 µM.
In the case of `CCOC(=O)c1cc(C(O)c2ccc(Cl)cc2Cl)cn1S(=O)(=O)c1ccc(C)cc1` (stereo not given), the Ratio in assay [4] is 2.6. In addition, the response in assay [1] was half-maximal at 14 µM (EC50). Besides, in assay [2], the CC50 came to 36 µM.
Take `CC(C)(C)c1ccc(S(=O)(=O)n2ccc(C(O)c3ccc(Cl)cc3Cl)c2)cc1` (stereo not given): the IC50 in assay [3] came to 6.4 µM. Besides, the SI in assay [4] came to 24. In assay [1], this molecule gave an EC50 of 2.5 µM. The molecule further returned a CC50 in assay [2] of 62 µM.
For `O=S(=O)(c1ccccc1)n1ccc(C(c2ccc(Cl)cc2)n2ccnc2)c1` (stereo not given), the EC50 in assay [1] was > 22 µM. In assay [2], this molecule came in with a CC50 of 22 µM.
Take `Cc1ccc(C(O)c2ccn(S(=O)(=O)c3ccccc3)c2)cc1` (stereo not given): in assay [4], the Ratio was found to be 8. The molecule also showed an EC50 in assay [1] of 15 µM. In assay [2], this molecule yielded a CC50 of 122 µM.
Take `O=S(=O)(c1ccccc1)n1ccc(C(O)c2ccccc2Cl)c1` (stereo not given): the IC50 in assay [3] is 29.5 µM. Further, in assay [4], the Ratio is 27.5. In assay [1], this molecule returned a concentration giving a half-maximal response (EC50) of 4.1 µM. Besides, half-maximal cytotoxicity in assay [2] (CC50) was put at 113 µM.
Take `Cc1ccc(S(=O)(=O)n2cc(C(O)c3ccc(Cl)cc3Cl)cc2C(=O)OC(C)C)cc1` (stereo not given): the Ratio in assay [4] was 1.4. In assay [1], this molecule gave an EC50 of 22 µM. Further, the CC50 in assay [2] worked out at 32 µM.
`Nc1ccc(S(=O)(=O)n2ccc(C(O)c3ccc(Cl)cc3Cl)c2)cc1` (stereo not given): the Ratio in assay [4] is 6.7. The molecule further yielded an EC50 in assay [1] of 11 µM. For the same molecule, in assay [2], the CC50 worked out at 74 µM.
As for `O=S(=O)(c1ccc(Cl)cc1)n1ccc(C(O)c2ccc(Cl)cc2Cl)c1` (stereo not given), in assay [3], the IC50 was found to be 17 µM. The Ratio in assay [4] came out at 21.8. The EC50 in assay [1] is 4.4 µM. Half-maximal cytotoxicity in assay [2] (CC50) was put at 96 µM.
With `CCOP(=O)(OCC)OP(=O)(OCC)OCC` [ETHYL PYROPHOSPHATE], in assay [4], the Ratio was 106. For the same molecule, a half-maximal effect in assay [1] (EC50) was put at 7 µM. In assay [2], the CC50 amounted to 740 µM.
Take `COC(c1ccn(S(=O)(=O)c2ccc(C)cc2)c1)c1ccc(Cl)cc1Cl` (stereo not given): in assay [1], the EC50 was > 82 µM. The same molecule returned a CC50 in assay [2] of 82 µM.
In the case of `O=S(=O)(c1ccccc1)n1ccc(C(c2ccc(Cl)cc2Cl)n2ccnc2)c1` (stereo not given), in assay [1], the EC50 was > 14 µM. In assay [2], it took 14 µM to reach half-maximal cytotoxicity (CC50).
`Cc1ccc(C(O)c2ccn(S(=O)(=O)c3ccc(C)cc3)c2)cc1` (stereo not given): in assay [3], the IC50 stood at 4.7 µM. In addition, the Ratio in assay [4] turned out to be 13. For the same molecule, the EC50 in assay [1] worked out at 7.3 µM. Moreover, it took 96 µM to reach half-maximal cytotoxicity in assay [2] (CC50).
For `Cc1ccccc1S(=O)(=O)n1ccc(C(O)c2ccc(Cl)cc2Cl)c1` (stereo not given) the same measures were 27 µM, > 117, 1.7 µM and > 200 µM.
`O=S(=O)(c1ccccc1)n1ccc(C(O)c2c(F)cccc2F)c1` (stereo not given): in assay [4], the Ratio was 2. The concentration for a half-maximal effect (EC50) in assay [1] was determined as 48 µM. In assay [2], the CC50 came out at 100 µM.
Consider `Cc1cn([C@H]2C[C@H](N=[N+]=[N-])[C@@H](CO)O2)c(=O)[nH]c1=O` [ZIDOVUDINE], for which, in assay [1], it took 0.01 µM to reach a half-maximal effect (EC50). Further, the CC50 in assay [2] is > 20 µM.
Consider `O=C(c1ccc(Cl)cc1)c1ccn(S(=O)(=O)c2ccccc2)c1`, for which the EC50 in assay [1] is > 26 µM. In assay [2], this molecule registered a CC50 of 26 µM.
Consider `CCc1ccc(S(=O)(=O)n2ccc(C(O)c3ccc(Cl)cc3Cl)c2)cc1` (stereo not given), for which the IC50 in assay [3] worked out at 22 µM. The Ratio in assay [4] stood at 47. In assay [1], the 50% effective concentration (EC50) was 1.5 µM. The same molecule had a CC50 in assay [2] of 71 µM.
For the molecule `CC(C)OC(=O)c1cc(C(O)c2ccc(Cl)cc2Cl)cn1S(=O)(=O)c1ccc(Cl)cc1` (stereo not given), the EC50 in assay [1] is > 28 µM. The CC50 in assay [2] came to 28 µM.
Consider `Cc1ccnc2c1NC(=O)c1cccnc1N2C1CC1` [NEVIRAPINE], for which the CC50 in assay [2] was > 200 µM.
`CCOC(=O)c1cc(C(O)c2ccc(Cl)cc2Cl)cn1S(=O)(=O)c1cc(Cl)ccc1[N+](=O)[O-]` (stereo not given): in assay [1], the EC50 was > 14 µM. This molecule also came in with a CC50 in assay [2] of 14 µM.

Broadly, the EC50 is the concentration needed to bring the measured effect to its halfway point. Low values mean higher potency in that assay, high ones lower potency in that assay. A word on the CC50: it is the concentration giving 50% cytotoxicity. A low value points to greater toxicity to the cells. What is called IC50 is the concentration at which inhibition is half-maximal.
